From PubChem BioAssay (NCI)
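Step 1: Grow cells in 96-well plates. Step 2: Expose to compound for 48 hours at 5 concentrations. Step 3: Interpolate endpoints linearly; if unreached, use highest concentration. TGI is the concentration that stops growth completely.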

Legend:
Assay in all cases: NCI anticancer screen, dose series, 48 h
MOLT-4 leukemia = system: MOLT-4 leukemia
HT29 colon = system: HT29 colon
HCT-15 colon = system: HCT-15 colon
COLO 205 colon = system: COLO 205 colon
SF-268 CNS = system: SF-268 CNS
UACC-62 melanoma = system: UACC-62 melanoma
A498 renal = system: A498 renal
MDA-MB-435 = system: MDA-MB-435
SN12C renal = system: SN12C renal
MALME-3M melanoma = system: MALME-3M melanoma
RPMI-8226 leukemia = system: RPMI-8226 leukemia
EKVX NSCLC = system: EKVX NSCLC
UO-31 renal = system: UO-31 renal
SK-MEL-5 melanoma = system: SK-MEL-5 melanoma
ACHN renal = system: ACHN renal
OVCAR-8 ovarian = system: OVCAR-8 ovarian
KM12 colon = system: KM12 colon
HL-60(TB) leukemia = system: HL-60(TB) leukemia
NCI/ADR-RES ovarian = system: NCI/ADR-RES ovarian
T-47D breast = system: T-47D breast
CAKI-1 renal = system: CAKI-1 renal
SK-MEL-2 melanoma = system: SK-MEL-2 melanoma
SW-620 colon = system: SW-620 colon
SF-539 CNS = system: SF-539 CNS
HCC-2998 colon = system: HCC-2998 colon
SF-295 CNS = system: SF-295 CNS
SK-MEL-28 melanoma = system: SK-MEL-28 melanoma
DU-145 prostate = system: DU-145 prostate
PC-3 prostate = system: PC-3 prostate
TK-10 renal = system: TK-10 renal
SNB-19 CNS = system: SNB-19 CNS
NCI-H522 lung = system: NCI-H522 lung
IGROV1 ovarian = system: IGROV1 ovarian
MDA-N = system: MDA-N
OVCAR-4 ovarian = system: OVCAR-4 ovarian
HCT-116 colon = system: HCT-116 colon
MCF7 breast = system: MCF7 breast
SK-OV-3 ovarian = system: SK-OV-3 ovarian
BT-549 breast = system: BT-549 breast
U251 CNS = system: U251 CNS
A549 NSCLC = system: A549 NSCLC
NCI-H226 lung = system: NCI-H226 lung
CCRF-CEM leukemia = system: CCRF-CEM leukemia
OVCAR-3 ovarian = system: OVCAR-3 ovarian
HOP-92 NSCLC = system: HOP-92 NSCLC
MDA-MB-231 breast = system: MDA-MB-231 breast
786-0 renal = system: 786-0 renal
NCI-H460 lung = system: NCI-H460 lung
SNB-75 CNS = system: SNB-75 CNS
HOP-62 NSCLC = system: HOP-62 NSCLC
M14 melanoma = system: M14 melanoma
RXF 393 renal = system: RXF 393 renal
LOX IMVI melanoma = system: LOX IMVI melanoma
HS 578T breast = system: HS 578T breast
OVCAR-5 ovarian = system: OVCAR-5 ovarian
K-562 leukemia = system: K-562 leukemia
UACC-257 melanoma = system: UACC-257 melanoma
NCI-H23 lung = system: NCI-H23 lung
SR leukemia = system: SR leukemia

## CN(C)CCNCc1ccc2c(-c3ccccc3)nc3cc(Cl)c(Cl)cc3n12
MOLT-4 leukemia
  TGI: 21.6 µM
HT29 colon
  TGI: 16.7 µM
HCT-15 colon
  TGI: 23.2 µM
COLO 205 colon
  TGI: 14.1 µM
SF-268 CNS
  TGI: 29.7 µM
UACC-62 melanoma
  TGI: 17.7 µM
A498 renal
  TGI: 29.9 µM
MDA-MB-435
  TGI: 21.9 µM
SN12C renal
  TGI: 24.2 µM
MALME-3M melanoma
  TGI: 33.1 µM
RPMI-8226 leukemia
  TGI: 36.8 µM
EKVX NSCLC
  TGI: 30.2 µM
UO-31 renal
  TGI: 14.7 µM
SK-MEL-5 melanoma
  TGI: 16.4 µM
ACHN renal
  TGI: 14.8 µM
OVCAR-8 ovarian
  TGI: 27.7 µM
KM12 colon
  TGI: 24.7 µM
HL-60(TB) leukemia
  TGI: 11.6 µM
NCI/ADR-RES ovarian
  TGI: 31.4 µM
T-47D breast
  TGI: 15.1 µM
CAKI-1 renal
  TGI: 18.9 µM
SK-MEL-2 melanoma
  TGI: 20.6 µM
SW-620 colon
  TGI: 28.3 µM
SF-539 CNS
  TGI: 14.4 µM
HCC-2998 colon
  TGI: 5.83 µM
SF-295 CNS
  TGI: 27.7 µM
SK-MEL-28 melanoma
  TGI: 14.1 µM
DU-145 prostate
  TGI: 23.3 µM
PC-3 prostate
  TGI: 27.3 µM
TK-10 renal
  TGI: 22.2 µM
SNB-19 CNS
  TGI: 28.9 µM
NCI-H522 lung
  TGI: 27.8 µM
IGROV1 ovarian
  TGI: 22.6 µM
MDA-N
  TGI: 23.4 µM
OVCAR-4 ovarian
  TGI: 26.7 µM
HCT-116 colon
  TGI: 16.3 µM
MCF7 breast
  TGI: 19.1 µM
SK-OV-3 ovarian
  TGI: 17.4 µM
BT-549 breast
  TGI: 30.9 µM
U251 CNS
  TGI: 22.7 µM
A549 NSCLC
  TGI: 24.3 µM
NCI-H226 lung
  TGI: 37.5 µM
CCRF-CEM leukemia
  TGI: 29.4 µM
OVCAR-3 ovarian
  TGI: 35.9 µM
HOP-92 NSCLC
  TGI: 28.3 µM
MDA-MB-231 breast
  TGI: 25.2 µM
786-0 renal
  TGI: 15.2 µM
NCI-H460 lung
  TGI: 23.9 µM
SNB-75 CNS
  TGI: 20.2 µM
HOP-62 NSCLC
  TGI: 27.4 µM
M14 melanoma
  TGI: 15.3 µM
RXF 393 renal
  TGI: 10 µM
LOX IMVI melanoma
  TGI: 14.9 µM
HS 578T breast
  TGI: 47.6 µM
OVCAR-5 ovarian
  TGI: 26.1 µM
K-562 leukemia
  TGI: 31.9 µM
UACC-257 melanoma
  TGI: 19.9 µM
NCI-H23 lung
  TGI: 28.9 µM

## O=C(O)C1OC1C(=O)O (configuration not stated)
HT29 colon
  TGI: > 100 µM
HCT-15 colon
  TGI: > 100 µM
COLO 205 colon
  TGI: > 100 µM
SF-268 CNS
  TGI: > 100 µM
UACC-62 melanoma
  TGI: > 100 µM
A498 renal
  TGI: > 100 µM
MDA-MB-435
  TGI: > 100 µM
SN12C renal
  TGI: > 100 µM
MALME-3M melanoma
  TGI: > 100 µM
RPMI-8226 leukemia
  TGI: > 100 µM
EKVX NSCLC
  TGI: > 100 µM
UO-31 renal
  TGI: > 100 µM
SK-MEL-5 melanoma
  TGI: > 100 µM
ACHN renal
  TGI: > 100 µM
OVCAR-8 ovarian
  TGI: > 100 µM
KM12 colon
  TGI: > 100 µM
NCI/ADR-RES ovarian
  TGI: > 100 µM
T-47D breast
  TGI: > 100 µM
CAKI-1 renal
  TGI: > 100 µM
SK-MEL-2 melanoma
  TGI: > 100 µM
SW-620 colon
  TGI: > 100 µM
HCC-2998 colon
  TGI: > 100 µM
SF-295 CNS
  TGI: > 100 µM
SK-MEL-28 melanoma
  TGI: > 100 µM
DU-145 prostate
  TGI: > 100 µM
TK-10 renal
  TGI: > 100 µM
SNB-19 CNS
  TGI: > 100 µM
NCI-H522 lung
  TGI: > 100 µM
IGROV1 ovarian
  TGI: > 100 µM
MDA-N
  TGI: > 100 µM
OVCAR-4 ovarian
  TGI: > 100 µM
HCT-116 colon
  TGI: > 100 µM
MCF7 breast
  TGI: > 100 µM
SK-OV-3 ovarian
  TGI: > 100 µM
BT-549 breast
  TGI: > 100 µM
U251 CNS
  TGI: > 100 µM
A549 NSCLC
  TGI: > 100 µM
NCI-H226 lung
  TGI: > 100 µM
OVCAR-3 ovarian
  TGI: > 100 µM
HOP-92 NSCLC
  TGI: > 100 µM
MDA-MB-231 breast
  TGI: > 100 µM
786-0 renal
  TGI: > 100 µM
NCI-H460 lung
  TGI: > 100 µM
SNB-75 CNS
  TGI: > 100 µM
HOP-62 NSCLC
  TGI: > 100 µM
M14 melanoma
  TGI: > 100 µM
RXF 393 renal
  TGI: > 100 µM
LOX IMVI melanoma
  TGI: > 100 µM
HS 578T breast
  TGI: > 100 µM
SR leukemia
  TGI: > 100 µM
OVCAR-5 ovarian
  TGI: > 100 µM
K-562 leukemia
  TGI: > 100 µM
UACC-257 melanoma
  TGI: > 100 µM
NCI-H23 lung
  TGI: > 100 µM
